Test results published in US20250122218A1, “MODULATORS OF CYSTIC FIBROSIS TRANSMEMBRANE CONDUCTANCE REGULATOR” (Vertex Pharmaceuticals Incorporated, priority 2022, published 2025).

These compounds were tested against T1, CFTR in F508del/MF-HBE cells (Homo sapiens, UniProt P13569, DEL508-508) (assay: Ussing chamber assay of CFTR-mediated short-circuit currents (identification of potentiator compounds)). Conditions: potentiator incubated 18-24 hours at 37° C. in combination with 10 μM corrector, in the presence of 20% human serum, CFTR-mediated ISC.
T1 construct: human bronchial epithelial (HBE) cells derived from CF subjects heterozygous for F508del and a minimal function CFTR mutation; endogenous in cells; host or cells: primary human bronchial epithelial cells from CF subjects (F508del/MF-HBE)
T1 sequence (P13569 with tags, fused parts or gaps DEL508-508): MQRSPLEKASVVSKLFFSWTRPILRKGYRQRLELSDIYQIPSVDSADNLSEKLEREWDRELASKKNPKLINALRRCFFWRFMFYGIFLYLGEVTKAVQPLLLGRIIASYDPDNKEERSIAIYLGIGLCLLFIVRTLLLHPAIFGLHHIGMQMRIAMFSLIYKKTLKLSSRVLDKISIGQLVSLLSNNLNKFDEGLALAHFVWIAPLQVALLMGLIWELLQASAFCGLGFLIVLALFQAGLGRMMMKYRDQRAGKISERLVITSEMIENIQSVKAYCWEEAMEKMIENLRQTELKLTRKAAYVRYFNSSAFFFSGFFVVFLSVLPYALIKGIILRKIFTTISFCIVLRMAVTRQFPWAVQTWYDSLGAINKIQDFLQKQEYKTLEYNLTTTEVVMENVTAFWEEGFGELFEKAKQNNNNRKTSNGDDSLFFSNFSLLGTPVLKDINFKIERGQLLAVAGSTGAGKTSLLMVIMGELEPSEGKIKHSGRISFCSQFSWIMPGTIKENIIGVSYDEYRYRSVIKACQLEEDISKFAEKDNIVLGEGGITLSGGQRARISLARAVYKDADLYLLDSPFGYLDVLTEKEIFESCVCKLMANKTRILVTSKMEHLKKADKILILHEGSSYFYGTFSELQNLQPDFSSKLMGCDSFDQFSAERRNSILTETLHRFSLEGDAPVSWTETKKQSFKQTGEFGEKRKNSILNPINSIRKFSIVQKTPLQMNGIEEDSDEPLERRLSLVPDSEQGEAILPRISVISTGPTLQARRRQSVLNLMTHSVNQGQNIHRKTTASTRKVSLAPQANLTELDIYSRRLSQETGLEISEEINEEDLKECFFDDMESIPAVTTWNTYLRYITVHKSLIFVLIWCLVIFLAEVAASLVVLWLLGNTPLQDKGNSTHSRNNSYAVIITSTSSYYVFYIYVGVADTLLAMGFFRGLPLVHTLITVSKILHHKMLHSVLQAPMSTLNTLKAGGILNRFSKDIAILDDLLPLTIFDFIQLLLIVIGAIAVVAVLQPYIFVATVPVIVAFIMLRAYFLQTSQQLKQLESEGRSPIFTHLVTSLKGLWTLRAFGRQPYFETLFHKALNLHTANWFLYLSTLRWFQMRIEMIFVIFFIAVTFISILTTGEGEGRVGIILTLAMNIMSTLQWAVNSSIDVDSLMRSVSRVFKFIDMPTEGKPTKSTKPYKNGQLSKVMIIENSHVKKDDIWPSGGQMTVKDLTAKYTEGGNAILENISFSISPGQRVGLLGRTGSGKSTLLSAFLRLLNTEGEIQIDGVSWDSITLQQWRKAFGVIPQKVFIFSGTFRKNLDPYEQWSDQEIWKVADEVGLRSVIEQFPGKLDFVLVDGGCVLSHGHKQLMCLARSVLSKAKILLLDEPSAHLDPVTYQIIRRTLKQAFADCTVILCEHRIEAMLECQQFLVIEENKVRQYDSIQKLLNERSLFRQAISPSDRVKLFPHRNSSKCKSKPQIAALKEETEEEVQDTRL
Format: cell-based
Method in brief: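 Short-circuit current was measured in Ussing chambers at 37° C, Vhold 0 mV, 30 μM apical amiloride. CFTR current was defined as the forskolin (20 μM) response relative to the current remaining after BPO/GlyH-101/inhibitor 172 (20 μM each). Before recording, cells had 18-24 h exposure to test potentiators with 10 μM corrector compound in 20% human serum.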

EC50, < 500 nM:
Nc1cc(C(F)(F)F)c2nc1-c1nnc(o1)[C@@](O)(C(F)(F)F)CCCCCN(Cc1ccc(C34CC(C3)C4)cc1)C2=O [Compound 195, (6R)-17-amino-12-[[4-(1-bicyclo[1.1.1]pentanyl)phenyl]methyl]-6-hydroxy-6,15-bis(trifluoromethyl)-19-oxa-3,4,12,18-tetrazatricyclo[12.3.1.12,5]nonadeca-1(18),2,4,14,16-pentaen-13-one]
Nc1cc(C(F)(F)F)c2nc1-c1nnc(o1)[C@@](O)(C(F)(F)F)CCCCCN([C@H]1CC[C@@H](C(F)(F)F)CC1)C2=O [Compound 208, (6R)-17-amino-6-hydroxy-12-[(1s,4s)-4-(trifluoromethyl)cyclohexyl]-6,15-bis(trifluoromethyl)-19-oxa-3,4,12,18-tetraazatricyclo [12.3.1.12,5] nonadeca-1(18),2,4,14,16-pentaen-13-one]
Nc1cc(C(F)(F)F)c2nc1-c1nnc(o1)[C@@](O)(C(F)(F)F)CCCCCN([C@H]1CC[C@H](C(F)(F)F)CC1)C2=O [Compound 209, (6R)-17-amino-6-hydroxy-12-[(1r,4r)-4-(trifluoromethyl)cyclohexyl]-6,15-bis(trifluoromethyl)-19-oxa-3,4,12,18-tetraazatricyclo [12.3.1.12,5] nonadeca-1(18),2,4,14,16-pentaen-13-one]
Nc1cc(C(F)(F)F)c2nc1-c1nnc(o1)[C@@](O)(C(F)(F)F)CCCCCN(C13CCC(CC1)CC3)C2=O [Compound 210, (6R)-17-amino-12-(1-bicyclo[2.2.2]octanyl)-6-hydroxy-6,15-bis(trifluoromethyl)-19-oxa-3,4,12,18-tetrazatricyclo [12.3.1.12,5] nonadeca-1(18),2,4,14,16-pentaen-13-one]
COC12CCC(N3CCCCC[C@](O)(C(F)(F)F)c4nnc(o4)-c4nc(c(C(F)(F)F)cc4N)C3=O)(CC1)C2 [Compound 211, (6R)-17-amino-6-hydroxy-12-(4-methoxynorbornan-1-yl)-6,15-bis(trifluoromethyl)-19-oxa-3,4,12,18-tetrazatricyclo [12.3.1.12,5] nonadeca-1(18),2,4,14,16-pentaen-13-one]
Cc1cccc(CN2CCCCC[C@](O)(C(F)(F)F)C3=NN=C(O3)c3nc(c(C(F)(F)F)cc3N)C2=O)c1 [Compound 212, (6R)-17-amino-6-hydroxy-12-(m-tolylmethyl)-6,15-bis(trifluoromethyl)-19-oxa-3,4,12,18-tetrazatricyclo [12.3.1.12,5] nonadeca-1(18),2,4,14,16-pentaen-13-one]
CC(C)(C)CCN1CCCCC[C@](O)(C(F)(F)F)C2=NN=C(O2)c2nc(c(C(F)(F)F)cc2N)C1=O [Compound 213, (6R)-17-amino-12-(3,3-dimethylbutyl)-6-hydroxy-6,15-bis(trifluoromethyl)-19-oxa-3,4,12,18-tetrazatricyclo [12.3.1.12,5] nonadeca-1(18),2,4,14,16-pentaen-13-one]
Nc1cc(C(F)(F)F)c2nc1-c1nnc(o1)[C@@](O)(C(F)(F)F)CCCCCN(Cc1ccc(C3(C(F)(F)F)CC3)cn1)C2=O [Compound 214, (6R)-17-amino-6-hydroxy-6,15-bis(trifluoromethyl)-12-[[5-[1-(trifluoromethyl)cyclopropyl]-2-pyridyl]methyl]-19-oxa-3,4,12,18-tetrazatricyclo [12.3.1.12,5] nonadeca-1(18),2,4,14,16-pentaen-13-one]
Nc1cc(C(F)(F)F)c2nc1-c1nnc(o1)[C@@](O)(C(F)(F)F)CCCCCN(Cc1cccc(Br)c1)C2=O [Compound 216, (6R)-17-amino-12-[(3-bromophenyl)methyl]-6-hydroxy-6,15-bis(trifluoromethyl)-19-oxa-3,4,12,18-tetrazatricyclo [12.3.1.12,5] nonadeca-1(18),2,4,14,16-pentaen-13-one]
